# Tests used:
# [1] = tested on: caterpillars of the cotton bollworm (Heliothis armigera); assay: Heliothis armigera test (leaf dip); type: in vivo
# How it was run: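 Compound was formulated in dimethylformamide with alkylaryl polyglycol ether emulsifier and diluted in emulsifier-containing water. Soya bean leaves were dipped in the preparation and populated with Heliothis armigera caterpillars while still moist. Kill (%) was scored after the desired period.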
# [2] = tested on: Diabrotica undecimpunctata; assay: Diabrotica undecimpunctata (DIABUN) test (eggs); type: in vivo
# Experimental: (§1) Diabrotica undecimpunctata (DIABUN) Solvents: 1% of N-methylpyrrolidone (NMP) • 1% of diacetone alcohol Dye: brilliant sulphoflavin for staining the water To produce a suitable preparation of active compound, the active compound is mixed with the stated amounts of solvents and the concentrate is diluted with stained water to the desired concentration. The eggs (Diabrotica undecimpunctata) are treated with an active compound preparation of the desired concentration. After the desired period of time, the activity in % is determined. 100% means that all animals have been killed; 0% means that none of the animals have been killed.
# Myzus persicae = Myzus persicae test (ingestion of active compound preparation); type: in vivo
# Experimental: (§2) Myzus persicae Test Solvents: 1% of N-methylpyrrolidone (NMP) • 1% of diacetone alcohol Dye: brilliant sulphoflavin for staining the water To produce a suitable preparation of active compound, the active compound is mixed with the stated amounts of solvents and the concentrate is diluted with stained water to the desired concentration. The Myzus persicae are provided with an active compound preparation of the desired concentration for ingestion. After the desired period of time, the activity in % is determined. 100% means that all aphids have been killed; 0% means that none of the aphids have been killed.
# [3] = logP determination by HPLC (reversed-phase C18), EEC Directive 79/831 Annex V.A8; type: physicochemical; conditions: HPLC reversed-phase C18, 43° C., acidic range pH 2.7
# [4] = tested on: caterpillars of the army worm (Spodoptera frugiperda); assay: Spodoptera frugiperda test (SPODFR spray treatment); type: in vivo; conditions: for Kill rate after 7d in %: 100 g/ha, spray treatment
# How it was run: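 Compound formulated in acetone/DMF with alkylaryl polyglycol ether emulsifier, diluted in emulsifier-containing water and sprayed on maize leaf discs; after drying, discs infested with Spodoptera frugiperda caterpillars. Mortality (%) scored after a set period, 100% meaning all caterpillars killed.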
# [5] = tested on: larvae of the mustard beetle (Phaedon cochleariae); assay: Phaedon test (sprayed Chinese cabbage discs); type: in vivo; conditions: for Kill rate after 7d in %: 100 g/ha
# How it was run: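 Compound formulated in acetone/DMF with alkylaryl polyglycol ether emulsifier, diluted in emulsifier-containing water and sprayed onto Chinese cabbage (Brassica pekinensis) leaf discs. After drying, discs infested with Phaedon cochleariae larvae; % kill scored after set time (100% = all larvae dead, 0% = none).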
# Heliothis virescens = Heliothis virescens test (eggs); type: in vivo
# Experimental: as §1, with “Heliothis virescens” for “Diabrotica undecimpunctata (DIABUN)”, “(Heliothis virescens)” for “(Diabrotica undecimpunctata)”
# Aedes aegypti = Aedes aegypti test (larvae); type: in vivo
# Experimental: as §2, with “Aedes aegypti Test” for “Myzus persicae Test”, “The larvae (Aedes aegypti)” for “The Myzus persicae”, “are treated” for “are provided”, “desired concentration.” for “desired concentration for ingestion.”, “all of the larvae” for “all aphids”, “the larvae” for “the aphids”
# [6] = tested on: Spodoptera frugiperda larvae; assay: Spodoptera frugiperda test (treatment by watering); type: in vivo; conditions: for Kill rate after 14d in %: 20 ppm, treatment by watering
# How it was run: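 Compound formulated in dimethylformamide with alkylaryl polyglycol ether emulsifier and diluted with water to the desired concentration. Maize plants are watered with the preparation, then infested with Spodoptera frugiperda larvae. After the set period, % larval kill is scored (100% = all killed, 0% = none).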
# [7] = tested on: green peach aphid (Myzus persicae); assay: Myzus persicae test; systemic treatment; type: in vivo
# Experimental: Myzus persicae Test; Systemic Treatment Solvent: 7 parts by weight of dimethylformamide Emulsifier: 2 parts by weight of alkylaryl polyglycol ether To produce a suitable preparation of active compound, 1 part by weight of active compound is mixed with the stated amounts of solvent and emulsifier and the concentrate is diluted with water to the desired concentration. The active compound preparation is mixed with water. The stated concentration refers to the amount of active compound per volume unit of water (mg/l=ppm). The treated water is filled into vessels with a pea plant (Pisum sativum) which is then infected with the green peach aphid (Myzus persicae). After the desired period of time, the kill in % is determined. 100% means that all aphids have been killed; 0% means that none of the aphids have been killed.
# [8] = tested on: caterpillars of the diamondback moth (Plutella xylostella); assay: Plutella test (leaf dip); type: in vivo
# How it was run: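 Cabbage (Brassica oleracea) leaves dipped in compound formulated in dimethylformamide/alkylaryl polyglycol ether emulsifier diluted with emulsifier-containing water. Leaves infested with Plutella xylostella caterpillars while still moist. After a set period, kill % scored (100% = all caterpillars dead, 0% = none).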
# [9] = tested on: caterpillars of the army worm (Spodoptera exigua); assay: Spodoptera exigua test (leaf dip); type: in vivo; conditions: for Kill rate after 7d in %: 4 ppm
# How it was run: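 Compound in DMF with alkylaryl polyglycol ether emulsifier, diluted in water to test concentration; cabbage leaves dipped and infested with Spodoptera exigua caterpillars while still moist. Kill (%) scored after a set period, 100% meaning all caterpillars dead.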
# [10] = tested on: cotton aphid (Aphis gossypii); assay: Aphis gossypii test (leaf dip); type: in vivo; conditions: for Kill rate after 6d in %: 100 ppm
# Experimental: Aphis gossypii Test Solvent: 7 parts by weight of dimethylformamide Emulsifier: 2 parts by weight of alkylaryl polyglycol ether To produce a suitable preparation of active compound, 1 part by weight of active compound is mixed with the stated amounts of solvent and emulsifier and the concentrate is diluted with emulsifier-containing water to the desired concentration. Cotton leaves (Gossypium hirsutum) which are heavily infested by the cotton aphid (Aphis gossypii) are treated by being dipped into the active compound preparation of the desired concentration. After the desired period of time, the kill in % is determined. 100% means that all aphids have been killed; 0% means that none of the aphids have been killed.
# [11] = tested on: Spodoptera exigua, resistant strain; assay: Spodoptera exigua test; resistant strain; type: in vivo
# How it was run: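 Cabbage leaves dipped in compound preparation (DMF solvent, alkylaryl polyglycol ether emulsifier, diluted in emulsifier-containing water) and infested with caterpillars while still moist. After the set period, kill scored in %: 100% all caterpillars dead, 0% none dead.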
# [12] = tested on: green peach aphid (Myzus persicae); assay: Myzus test (MYZUPE spray treatment); type: in vivo; conditions: for Kill rate after 5d in %: 100 g/ha, spray treatment
# How it was run: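 Chinese cabbage leaf discs infested with all aphid stages sprayed with compound in acetone/DMF with alkylaryl polyglycol ether emulsifier, diluted in emulsifier-containing water to the desired concentration. After the set period, percent activity scored as aphids killed (100% = all dead, 0% = none).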
logP [3],Compound,activity in the Heliothis armigera test (in words) [1],"activity in the Spodoptera frugiperda test, spray treatment (in words) [4]",Kill rate after 7d in % [4] [%],activity in the Phaedon test (in words) [5],Kill rate after 7d in % [5] [%],Kill rate after 14d in % [6] [%],Kill rate after 7d in % ([1]; 4 ppm) [%],activity in the Plutella test (in words) [8],activity in the Spodoptera exigua test (in words) [9],Kill rate after 7d in % [9] [%],activity in the Aphis gossypii test (in words) [10],Kill rate after 6d in % [10] [%],"activity in the Myzus test, spray treatment (in words) [12]",Kill rate after 5d in % [12] [%],further results
3.09,O=C(Nc1c(Cl)cc(Cl)cc1C1=NOCCO1)c1cc(Br)nn1-c1ncccc1Cl [Example I-1-8],good activity,good activity,100,good activity,100,95,–,–,–,–,–,–,–,–,"Kill rate after 7d in % ([1]; 20 ppm): 100%; activity in the Diabrotica undecimpunctata test (in words) [2]: good activity; Kill rate after 2-5d in % ([2]; 300 ppm, 2-5 d, eggs): 100%; activity in the Myzus persicae test (in words) (Myzus persicae): good activity; Kill rate after 6-7d in % (Myzus persicae; 30 ppm, 6-7 d, ingestion): 100%; activity in the Heliothis virescens test (in words) (Heliothis virescens): good activity; Kill rate after 6-7d in % (Heliothis virescens; 100 ppm, 6-7 d, eggs): 100%; activity in the Aedes aegypti test (in words) (Aedes aegypti): good activity; Kill rate after 2-4d in % (Aedes aegypti; 30 ppm, 2-4 d, larvae): 100%; activity in the Spodoptera frugiperda test, watering (in words) [6]: good activity"
2.25,Cc1cc(Cl)cc(C2=NOCCN2)c1NC(=O)c1cc(Br)nn1-c1ncccc1Cl [Example I-1-19],good activity,good activity,100,good activity,100,95,100,good activity,good activity,80,good activity,80,good activity,90,"activity in the Myzus persicae test, systemic treatment (in words) [7]: good activity; Kill rate after 6d in % ([7]; 20 ppm, 6 d, systemic treatment): 90%; Kill rate after 7d in % ([8]; 0.8 ppm): 100%; activity in the Spodoptera exigua test, resistant strain (in words) [11]: good activity; Kill rate after 7d in % ([11]; 20 ppm, 7 d, resistant strain): 100%"
2.25,Cc1cc(Cl)cc(C2=NOCCN2)c1NC(=O)c1cc(Cl)nn1-c1ncccc1Cl [Example I-1-20],good activity,good activity,100,good activity,100,95,100,good activity,good activity,100,good activity,80,good activity,100,Kill rate after 7d in % ([8]; 4 ppm): 100%

# — patent US8062995B2, “Dioxazine-substituted arylamides” (Bayer CropScience AG, priority 2005, dated 2011)
